The subject of one assay is HSV. To be noted: co-incubated; cited from earlier work.
The next assay deals with Caco-2 cell sheets. Kind of assay: Transepithelial electrophysiology of Caco-2 cell sheets. The note with it: vs control. The assay is classed as cell-based, human. The method, then: Cells were seeded at the density of 5×10^5 onto sterile Millipore Millicell polycarbonate (PCF) permeable supports (pore size 0.4 μm with a diameter of 30 mm) on Day 0. Cells were allowed to grow for 21-24 days prior to experiments (Hubatsch et al. (2007) Nat. Protoc., 2:2111-9). Three or four Millicell PCF units (2 ml/unit) were placed in a 100 mm sterile petri dish (15 ml/dish). Cells were fed bilaterally 3 times per week with control medium until at least Day 14 and switched to different zinc-supplemented media (Ctrl, 50 or 100 μM elemental zinc) for another week. […]
On the day of experiment, cells were re-fed in fresh culture medium and allowed to incubate at 37° C. for 2 hr prior to the actual experiment. Transepithelial voltage and transepithelial electrical resistance were measured as previously described (Skrovanek et al. (2007) Am. J. Physiol. Regul. Integr. Comp. Physiol., 293:R1046-55). In brief, using silver/silver chloride electrodes in series with 1M NaCl agar bridges, a 40 microamp externally applied current pulse was delivered across the cell layer and the resultant change in the voltage across the cell layer was measured using calomel electrodes in series with 1M NaCl/agar bridges and a Keithley® 197A auto-ranging digital multimeter. […]

The test system of the next assay is claudin-2. Kind of assay: Western blot analysis of tight junctional protein claudin-2 in Caco-2 cells. The assay is classed as cell-based, human. The note with it: 50 or 100 μM zinc, one week, vs control. On the procedure:
(§1) Human gastrointestinal epithelial cells were allowed to grow to maximal density and re-fed with culture media at different zinc concentrations for pre-determined time points (0, 3, 6, 24 or 48 hours, or 7 days). Flasks were washed two times each with ice cold saline, then flash-frozen in an ethanol-dry ice bath, and stored at −80° C. until fractionation. At that time, flasks were quick-thawed and 2 ml of 4° C. Buffer A (20 mM Tris-HCl, pH 7.5, 0.25 M sucrose, 10 mM EGTA, 2 mM EDTA) with protease and phosphatase inhibitors (final concentrations: 0.8 μM aprotinin, 20 μM leupeptin, 50 μM bestatin, 1 mM AEBSF, 10 μM pepstatin) (Calbiochem) was added to each, cells were scraped into the buffer, the suspension mechanically disrupted and then sonicated for 60 seconds on ice and transferred to an ultracentrifuge tube. Tubes were centrifuged in a chilled Beckman 50TI rotor at 39,000 rpm for one hour at 4° C. […] The supernatant from this final spin was the “membrane fraction.” Total protein was measured using the BioRad DC™ Protein Assay Kit.
(§2) Samples of these fractions were analyzed by polyacrylamide gel electrophoresis using a Novex XCell SureLock™ Mini-Cell apparatus and a 4-20% gradient Novex Tris-Glycine, pre-cast, 10-well, 1.5 mm thick gel (Invitrogen). […]
(§3) Films were analyzed for protein expression level by measuring optical density units with a Personal Densitometer™ SI (Molecular Dynamics).

A further assay deals with claudin-7. Nature of the assay: Western blot analysis of tight junctional protein claudin-7 in Caco-2 cells. To be noted: 50 or 100 μM zinc, one week, vs control. It counts as cell-based, human. On the procedure: as §1, §2, §3
In general terms: A western blot detects proteins with antibodies after separation by electrophoresis.

With `CC(=O)[O-].CC(=O)[O-].[Zn+2]` [zinc acetate], in the assay with HSV, the “inactivation of HSV” value was “directly inactivate”.
In the case of `CC(O)C(=O)[O-].CC(O)C(=O)[O-].[Zn+2]` (centres unmarked) [zinc lactate], the “inactivation of HSV” value in the assay with HSV is “directly inactivate”.
As to `O=S(=O)([O-])[O-].[Zn+2]` [zinc sulfate], the “inactivation of HSV” value in the assay on HSV was “directly inactivate”.
In the case of `[Zn]` [zinc], the short circuit current entry in the assay with Caco-2 cell sheets (50 or 100 μM zinc, one week) is recorded as “comparable short circuit currents”. Also, the transepithelial electrical resistance entry in the assay with Caco-2 cell sheets (one-week zinc supplementation (50 or 100 μM)) is on record as “significant increase”. Further, in the assay on claudin-2, the “expression of claudin-2” value is given as “significantly reduced”. Also, the “expression of claudin-7” value in the assay on claudin-7 is listed as “reduction, albeit to a lesser extent than claudin-2”.
On to zinc gluconate, for which the “inactivation of HSV” value in the assay on HSV was “directly inactivate”.

Values taken from US20180303874A1, “Compositions and Methods for the Prevention of Microbial Infections” (LANKENAU INSTITUTE FOR MEDICAL RESEARCH, priority 2011, published 2018).
